From patent US20100129343A1, “Use Of A Compound For Enhancing The Expression Of Membrane Proteins On The Cell Surface” (Axentis Pharma AG, priority 2004, published 2010)
“Also recorded” adds a separate entry of the source.

Assays:
Assay type in all cases: cell-based
[1] = tested on: CFTR-ΔF508; experiment: Immunoblot for GFP-tagged CFTR-ΔF508 expressed in HEK293 cells; conditions: 16 h, endoglycosidase H treated extract
Method: HEK293 cells (1*10^6 cells) were transfected with plasmids encoding CFTR or CFTR-ΔF508 (GFP-tagged) and/or co-transfected with effector plasmids. After 16h, the cells were treated with the varying concentrations of compounds. After 24h, the cells were harvested in phosphate-buffered saline, lysed by a freeze-thaw cycle and homogenized by sonication. The homogenate was resuspended in reducing Laemmli sample buffer (50 mM Tris.HCl, pH 6.8, 20% glycerol, 0.1% bromphenol blue, 2% SDS and 20 mM dithiothreitol); aliquots (15% of the original culture) were resolved on a denaturing polyacrylamide gel (monomer concentration in the stacking gel and in the running gel 4 and 8% respectively) and electrophoretically transferred to a nitrocellulose membrane. Immunodetection was done with an antiserum directed against GFP as the primary antibody and an anti-rabbit IgG coupled to horseradish peroxidase as the secondary antibody.
In a first example, Membranes from transfected cells were prepared and immunoblotted for GFP-tagged CFTR or CFTR-ΔF508, respectively (by using an antibody directed against the fluorescent protein).
The membrane extract was also treated endoglycosidase H. The rationale for this experiment is as follows: membrane proteins are core glycosylated in the endoplasmatic reticulum. Core gylcosylation is sensitive to endoglycosidase H. If the protein has reached the Golgi (and then trafficked to the plasma membrane), it acquires additional sugar moieties and becomes resistant to endoglycosidase H. It is evident from lane 3 in FIG. 6 that endoglycosidase H treatment reduces the apparent size of CFTR; thus, the bulk of the protein is still in the ER. The following lanes examine the expression of CFTR-ΔF508 (all extracts were treated with endoglycosidase H): lane 4 is the control, that is cells expressing CFTR-ΔF508; in lanes 5, 6, 7 and 8 cells expressing CFTR-ΔF508 were treated overnight (i.e. for 16 h) with 100 nM MG132, 20 μM kifunensine, 1 μM and 100 nM bortezomib, respectively.

[2] = tested on: CFTR-ΔF508; experiment: FACS monitoring of GFP-tagged CFTR-ΔF508 expression in HEK293 cells
Method: (§1) Cultured HEK293 cells were transfected with plasmids encoding CFTR or CFTR-ΔF508 (GFP-tagged) and/or co-transfected with plasmids encoding USP4 (or an appropriate control plasmid) by using the CaPO4-precipitation method. Sixteen hours after transfection the cells were treated with varying concentrations of compounds. At a specific time point (here 24 h) the cells are trypsinized, fixed in ethanol, permeabilized and stained with propidium iodide (PI). The stained cells are subjected to FACS analysis
Because CFTR is tagged with a fluorescent protein, expression in individual cells can be monitored by fluorescence activated cell sorting (FACS). By contrast with fluorescence microscopy (where individual cells are picked), FACS allows to survey the entire cell population. In addition, FACS has the advantage that it allows for reasonable sample throughput; finally, automation and scale-up is readily possible. […]
The original data set is shown on the right hand side of the figures, respectively (see e.g. FIG. 7c): the x-axis is the propidium iodide fluorescence (note that the scale is linear). The y-axis is the GFP-fluorescence (=fluorescence associated with CFTR; note that the scale is logarithmic) and each dot corresponds to a cell. […]

[3] = tested on: HEK293 cells; experiment: FACS propidium iodide staining: cell cycle distribution / apoptosis of HEK293 cells
Method: as §1
Transiently transfected HEK293 cells were fixed in ethanol 24 h after transfection as mentioned above and then stained with propidium iodide to label the DNA: the rationale was to examine the distribution of cells in the cell cycle (=to see if the expression of CFTR or of CFTR-ΔF508 was toxic or if the compounds employed killed the cells/drove them into apoptosis).
One can plot the cell counts against the propidium iodide fluorescence of the transfected cells (such as shown in, for example, FIG. 7b): This gives a peak of cells (denoted by M1) that have a 2n content of DNA (G1-cells), a shoulder of cells that have a DNA content of larger than 2n (denoted by M3 and representing cells that are in S-phase) and a second peak of cells that have a DNA content of 4n (denoted by M2 and representing cells in G2 and M-phase).

[4] = biological target: T1, A2A-receptor (Rattus norvegicus, UniProt P30543); experiment: [3H]ZM241385 saturation binding to membranes from PC12 cells (endogenous A2A-receptor); conditions: 100 μM chloroquine for 3h
T1 construct: PC12 cells (that endogenously express the A2A-receptor); endogenous in cells; host or cells: PC12 (rat pheochromocytoma), membranes
T1 sequence (P30543 whole entry): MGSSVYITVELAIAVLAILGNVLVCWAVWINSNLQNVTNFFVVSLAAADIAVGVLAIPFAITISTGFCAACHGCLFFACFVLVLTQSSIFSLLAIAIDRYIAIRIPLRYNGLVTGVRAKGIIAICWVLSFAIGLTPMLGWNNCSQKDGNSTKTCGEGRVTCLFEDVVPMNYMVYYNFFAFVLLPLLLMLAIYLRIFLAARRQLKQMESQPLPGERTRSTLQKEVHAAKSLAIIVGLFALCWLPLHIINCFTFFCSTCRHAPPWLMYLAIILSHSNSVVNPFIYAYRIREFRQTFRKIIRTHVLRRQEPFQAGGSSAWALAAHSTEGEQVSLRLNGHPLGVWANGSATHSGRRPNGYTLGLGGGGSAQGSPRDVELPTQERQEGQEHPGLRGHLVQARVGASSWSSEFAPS
Method: Membranes were prepared from PC12 cells, which had been incubated in the presence or in the absence of 50 μM MG132 or 100 μM chloroquine for 3h, and were incubated in buffer containing the indicated concentrations of [^3H]ZM241385 in the presence of 100 μM GTPγS.
Membranes (100 μg/assay) that had been prepared from PC12 cells or HEK293 cells transiently transfected with the appropriate plasmids were incubated in a final volume of 0.3 ml containing 50 mM Tris.HCl (pH 8.0), 1 mM EDTA, 5 mM MgCl2, 8 μg/ml adenosine deaminase and concentrations of [^3H]ZM241385 (specific activity ˜20 Ci/mmol) covering the range of 0.2 to 20 nM in the presence of 100 μM GTPγS (Klinger et al., 2002). After 60 min at room temperature, the reaction was terminated by rapid filtration over glass fiber filters. Nonspecific binding was determined in the presence of 10 μM XAC and amounted to 40% at the highest concentration of [^3H]ZM241385. The data points were fitted by non-linear regression to the equation describing a rectangular hyperbola. Assays were performed in duplicate.

In the case of `CC(C)C[C@H](NC(=O)[C@H](Cc1ccccc1)NC(=O)c1cnccn1)B(O)O` [Bortezomib, N-(2-pyrazine)carbonyl-L-phenylalanine-L-leucine-boronic acid], the “accumulation of CFTR-ΔF508 (intensity of staining vs control lane)” value ([1]; 100 nM bortezomib) is reported as “led to the accumulation of CFTR-ΔF508; also recorded: more effective than 1 μM bortezomib”, the “accumulation of CFTR-ΔF508 (intensity of staining vs control lane)” value ([1]; 1 μM bortezomib) is reported as “led to the accumulation of CFTR-ΔF508” and the CFTR-ΔF508-associated fluorescence ([2]; 10 nM bortezomib) is reported as “expression of CFTR is increased; also recorded: substantially increases the level of CFTR-ΔF508”. For the same compound, the CFTR-ΔF508-associated fluorescence ([2]; 100 nM bortezomib) was “expression of CFTR is increased”, the cell cycle distribution ([3]; 10 nM bortezomib, CFTR-ΔF508 expressing cells) was “essentially the same as the one shown in control cells” and the “peak of the G1-cells (M1)” value ([3]; 100 nM Bortezomib, CFTR-ΔF508 expressing cells) was “greatly reduced”. The “number of cells with low propidium iodide fluorescence (apoptotic)” value ([3]; 100 nM bortezomib) was “number of cells with low propidium iodide fluorescence increases”, the “number of cells with low propidium iodide fluorescence (apoptotic)” value ([3]; 1 μM Bortezomib) was “number of cells with low propidium iodide fluorescence increases” and the “peak of the G1-cells (M1)” value ([3]; 1 μM Bortezomib, CFTR-ΔF508 expressing cells) was “greatly reduced”. The “cell mortality / apoptosis, general statement” value ([3]; within the therapeutic window (Bortezomib), very small dosage (MG132)) was “no increased cell mortality is observed”.
For `CCN(CC)CCCC(C)Nc1ccnc2cc(Cl)ccc12` (stereo not drawn) [choloroquine, chloroquine], the A2A-receptor levels [4] was “did not affect the A2A-receptor levels”.
For `O=C1N[C@@H]2[C@@H](O)[C@@H](O)[C@H](O)[C@@H](CO)N2C1=O` [kifunensine], the “accumulation of CFTR-ΔF508 (intensity of staining vs control lane)” value ([1]; 20 μM kifunensine) was “led to the accumulation of CFTR-ΔF508”.
